These results are taken from patent US20250034139A1, “AMINE COMPOUNDS HAVING ANTI-INFLAMMATORY, ANTIFUNGAL, ANTIPARASITIC, AND ANTICANCER ACTIVITY” (PHARMA CINQ, LLC, priority 2013, published 2025).

Experiment [1] concerns 4T1 murine breast cancer cells. Nature of the experiment: Example S: in vitro anticancer screen, 4T1 cells, Wst1. It counts as cell-based, mouse. To be noted: Mus musculus, 4T1, 18 h, 18 hr, Wst1; for viability at 1 µM: read-out: 4T1 1 μM, percent of cancer cell survival relative to vehicle treated cells; for viability at 5 µM: read-out: 4T1 5 μM, percent of cancer cell survival relative to vehicle treated cells. The protocol: Anticancer activity against 4T1 murine breast cancer cells cancer cells was assessed in vitro by seeding 1×10^4 cells/well in flat bottom culture plates, then treating with selected 1 μM or 5 μM concentrations of compounds for 18 hr after plating. Then 10 μL of Wst1 dye reagent, a tetrazolium dye indicator for […], was added/well and incubated approximately 2 hr before being assayed on the Biotek EL800 Universal microplate reader (450 nm, reference 630 nm).
Numerical values in the Table 37 represent percent of cancer cell survival relative to vehicle treated cells at the indicated concentrations, with values under 100 indicating anticancer cytotoxic activity at the drugs concentrations tested.

Experiment [2] deals with THP-1 cells. The experiment can be described thus: Example D: LPS-triggered THP-1 cell death assay, acute/5-hour and chronic/48-hour. The conditions noted are these: 10 ng/ml LPS, 0.1 μM test compound, 48 hours. In kind it is cell-based, Human. As to the method: Compounds of the invention were tested at 0.1 μM versus AC in the LPS-triggered THP-1 cell death assay. Both acute/5-hour and chronic/48-hour phases of cell death were assessed. Compounds were screened in batches with DMSO as the negative control and AC as the high activity control.

For experiment [3], the system named is PC-3 prostate cancer cells. Nature of the experiment: Example T: sensitisation of PC-3 cells to doxorubicin, oxaliplatin, paclitaxel or vincristine, Wst1. In kind it is cell-based, human. To be noted: PC-3 cells, 72 hours.

Regarding `COCCNc1ccnc2ccccc12` [BR, N-(2-Methoxyethyl)quinolin-4-amine], in experiment [1], the viability at 1 µM turned out to be 106% and the viability at 5 µM amounted to 122%.

Turning to `c1ccc2c(NCCN3CCOCC3)ccnc2c1` [BS, N-[2-(Morpholin-4-yl)ethyl]quinolin-4-amine], in experiment [1], the viability at 1 µM amounted to 105% and the viability at 5 µM came to 117%.

Turning to `O=C(NCCCNc1ccnc2ccccc12)c1ccccc1` [BT, N-[3-(Quinolin-4-ylamino)propyl]benzamide], in experiment [1], the viability at 1 µM is 119% and the viability at 5 µM came out at 121%. Besides, the “Viable cell percent change, Chronic/48-hour, Mean” value (from here on “Viable cell percent change”) in experiment [2] is 66.98%.

With `CCN(CC)CCNC(=O)c1ccc(Nc2ccnc3ccccc23)cc1` [BW, N-(2-Diethylaminoethyl)-4-(quinolin-4-ylamino)benzamide], in experiment [1], the viability at 1 µM was found to be 123% and the viability at 5 µM was determined as 236%. The “Viable cell percent change” value in experiment [2] is 36.08%.

Regarding `CN(C)c1ccc(CNc2ccnc3ccccc23)cc1` [BX, N-(4-Dimethylaminobenzyl)quinolin-4-amine], in experiment [1], the viability at 1 µM worked out at 116% and the viability at 5 µM turned out to be 116%. Further, the “Viable cell percent change” value in experiment [2] turned out to be 25.10%.

Take `c1ccc2c(NCc3ccncc3)ccnc2c1` [BZ, N-(Pyridin-4-ylmethyl)quinolin-4-amine]: in experiment [1], the viability at 1 µM stood at 122% and the viability at 5 µM was found to be 260%. The “Viable cell percent change” value in experiment [2] is given as 30.72%.

Turning to `CCCCCCOCCCCCCCC(=O)NCc1ccncc1` [CA, N-(Pyridin-4-ylmethyl)-8-(hexyloxy)octanamide], in experiment [1], the viability at 1 µM was 108% and the viability at 5 µM stood at 109%.

For `CCCCCCOCCCCCCCC(=O)Nc1ccc2ncccc2c1` [CB, N-(Quinolin-6-yl)-8-(hexyloxy)octanamide], in experiment [1], the viability at 1 µM stood at 105% and the viability at 5 µM stood at 102%. In addition, the “Viable cell percent change” value in experiment [2] worked out at 10.62%.

Consider `CCCCCCOCCCCCCCCn1cnc2ccccc21` [CC, 1-[8-(Hexyloxy)octyl]-1H-benzimidazole], for which, in experiment [1], the viability at 1 µM was 110% and the viability at 5 µM worked out at 99.5%.

Consider `CCCCCCCCCCOc1cccc(CNc2ncnc3ccccc23)c1` [CG, N-[3-(Decyloxy)benzyl]quinazolin-4-amine], for which, in experiment [2], the “Viable cell percent change” value turned out to be 54.66%.

With `CCCCCCOCCCCCCCCNc1ccnc2c(C(F)(F)F)cccc12` [CN, N-[8-(Hexyloxy)octyl]-8-(trifluoromethyl)quinolin-4-amine], in experiment [1], the viability at 1 µM worked out at 32.5% and the viability at 5 µM is 18.8%. Further, in experiment [2], the “Viable cell percent change” value is reported as 3.70%.

In the case of `c1ccc(-c2ccc(Nc3ccnc4ccccc34)cc2)cc1` [DC, N-(Biphenyl-4-yl)quinolin-4-amine], in experiment [1], the viability at 1 µM came out at 110% and the viability at 5 µM turned out to be 96.7%. In addition, in experiment [2], the “Viable cell percent change” value was found to be 87.66%.

As to `CCCCCC(=O)Nc1ccc(Nc2ccnc3ccccc23)cc1` [DG, N-[4-(Quinolin-4-ylamino)phenyl]hexanamide], in experiment [1], the viability at 1 µM is 105% and the viability at 5 µM is 94.7%. Further, in experiment [2], the “Viable cell percent change” value was 37.90%.

In the case of `CCCCCC(=O)Nc1cccc(Nc2ccnc3ccccc23)c1` [DH, N-[3-(Quinolin-4-ylamino)phenyl]hexanamide], in experiment [1], the viability at 1 µM turned out to be 96.6% and the viability at 5 µM was 112%. In addition, the “Viable cell percent change” value in experiment [2] is listed as 50.89%.

With `COc1ccc(Nc2ccnc3ccccc23)cc1` [DI, N-(4-Methoxyphenyl)quinolin-4-amine], in experiment [1], the viability at 1 µM was 108% and the viability at 5 µM amounted to 126%. Moreover, the “Viable cell percent change” value in experiment [2] was determined as 82.24%.

Consider `CCCCOc1ccc(Nc2ccnc3ccccc23)cc1` [DK, N-(4-Butoxyphenyl)quinolin-4-amine], for which, in experiment [1], the viability at 1 µM was found to be 102% and the viability at 5 µM was determined as 87.6%. For the same molecule, the “Viable cell percent change” value in experiment [2] came out at 73.60%.

Turning to `c1ccc(CNc2ccnc3ccccc23)cc1` [DQ, N-Benzylquinolin-4-amine], in experiment [1], the viability at 1 µM was determined as 99.5% and the viability at 5 µM turned out to be 122%. The “Viable cell percent change” value in experiment [2] is 32.31%.

In the case of `CCCCCCCCCCOc1ccc(CNc2ccnc3ccccc23)cc1` [DT, N-[4-(Decyloxy)benzyl]quinolin-4-amine], in experiment [2], the “Viable cell percent change” value stood at 16.12%.

Take `c1ccc(CCOc2cccc(CNc3ccnc4ccccc34)c2)cc1` [DV, N-(3-Phenethoxybenzyl)quinolin-4-amine]: in experiment [2], the “Viable cell percent change” value is on record as 24.69%. For the same molecule, in experiment [3] (Homo sapiens, compound 0.4 μM alone, Wst1, vehicle = 100, read-out: No Chemo: percent cell survival), the viability at 0.4 µM was 31.6%. Besides, in experiment [3] (compound 0.4 μM + doxorubicin 3.5 μM, chemotherapy agent alone normalized to 100%), the “Doxorubicin 3.5 μM: percent cell survival” value came to 76.7%. Besides, in experiment [3] (compound 0.4 μM + oxaliplatin 100 μM, chemotherapy agent alone normalized to 100%), the “Oxaliplatin 100 μM: percent cell survival” value is 61.9%. For the same molecule, in experiment [3] (compound 0.4 μM + paclitaxel 50 μM, chemotherapy agent alone normalized to 100%), the “Paclitaxel 50 μM: percent cell survival” value is given as 23.3%. In experiment [3] (compound 0.4 μM + vincristine 100 nM, chemotherapy agent alone normalized to 100%), the “Vincristine 100 nM: percent cell survival” value turned out to be 32.2%.

Turning to `O=C(NCCCCNc1ccnc2ccccc12)c1ccccc1` [DW, N-[4-(Quinolin-4-ylamino)butyl]benzamide], in experiment [1], the viability at 1 µM amounted to 102% and the viability at 5 µM worked out at 194%. In addition, in experiment [2], the “Viable cell percent change” value came out at 73.97%.

Consider `O=C(NCCCCCCNc1ccnc2ccccc12)c1ccccc1` [DX, N-[6-(Quinolin-4-ylamino)hexyl]benzamide], for which, in experiment [1], the viability at 1 µM came to 112% and the viability at 5 µM was 105%. The “Viable cell percent change” value in experiment [2] is given as 59.95%.

As for `CCCCCCOc1ccccc1C(=O)NCCCCNc1ccnc2ccccc12` [ED, 2-(Hexyloxy)-N-[4-(quinolin-4-ylamino)butyl]benzamide], in experiment [2], the “Viable cell percent change” value is given as 81.40%.

For `c1ccc(CNc2ccnc3ccccc23)nc1` [EH, N-(Pyridin-2-ylmethyl)quinolin-4-amine], in experiment [1], the viability at 1 µM worked out at 116% and the viability at 5 µM was 128%. For the same molecule, the “Viable cell percent change” value in experiment [2] is on record as 32.85%.

With `CCCCCCOCCCCCCCCNc1ccc2ncccc2c1` [EK, N-[8-(Hexyloxy)octyl]quinolin-6-amine], in experiment [1], the viability at 1 µM turned out to be 116% and the viability at 5 µM was determined as 114%. Besides, the “Viable cell percent change” value in experiment [2] turned out to be 15.50%.

`CCCCCCOCCCCCCCCNc1cccc2cccnc12` [EM, N-[8-(Hexyloxy)octyl]quinolin-8-amine]: in experiment [1], the viability at 1 µM was found to be 106% and the viability at 5 µM was found to be 93%.

On to `CCCCCCOCCCCCCCCNc1cc(C(F)(F)F)nc2ccccc12` [EN, N-[8-(Hexyloxy)octyl]-2-(trifluoromethyl)quinolin-4-amine], for which, in experiment [1], the viability at 1 µM was found to be 93.3% and the viability at 5 µM stood at 89.8%. In addition, the “Viable cell percent change” value in experiment [2] was determined as 6.64%.

On to `CCCCC(OC(C)=O)c1nc2c(N)nc3ccccc3c2n1CC(C)C` (stereo not shown) [FC, 1-(4-Amino-1-isobutyl-1H-imidazo[4,5-c]quinolin-2-yl)pentyl acetate], for which, in experiment [1], the viability at 1 µM is 115% and the viability at 5 µM was determined as 123%.

In the case of `CCCCCCCCCCCCCCCCn1cnc2cnccc21` [FM, 1-Hexadecyl-1H-imidazo[4,5-c]pyridine], the “Viable cell percent change” value in experiment [2] stood at 9.74%.

For the molecule `COCCCCCCCCNc1ccncc1` [FN, N-(8-Methoxyoctyl)pyridin-4-amine], in experiment [1], the viability at 1 µM was 92.9% and the viability at 5 µM stood at 79.4%. Moreover, in experiment [2], the “Viable cell percent change” value is given as 3.54%.

For `CCCCCCOCCCCCCCCNc1cccnc1` [FO, N-[8-(Hexyloxy)octyl]pyridin-3-amine], in experiment [1], the viability at 1 µM was determined as 106% and the viability at 5 µM turned out to be 146%. For the same molecule, in experiment [2], the “Viable cell percent change” value was 20.18%.

Consider `CCCCCCOCCCCCCCCNc1ccccn1` [FP, N-[8-(Hexyloxy)octyl]pyridin-2-amine], for which, in experiment [1], the viability at 1 µM stood at 116% and the viability at 5 µM amounted to 116%. The “Viable cell percent change” value in experiment [2] is 30.44%.

Take `CCCCCCOCCCCCCCCNc1ncccn1` [FQ]: in experiment [1], the viability at 1 µM worked out at 110% and the viability at 5 µM came to 98%. Moreover, the “Viable cell percent change” value in experiment [2] worked out at 25.62%.

In the case of `CCCCCCOCCCCCCCCNc1nccc2ccccc12` [FS, N-[8-(Hexyloxy)octyl]isoquinolin-1-amine], in experiment [1], the viability at 1 µM worked out at 122% and the viability at 5 µM was 107%.

With `CCCCCCOCCCCCCCCNc1cnc2ccccc2n1` [FU, N-[8-(Hexyloxy)octyl]quinoxalin-2-amine], in experiment [1], the viability at 1 µM worked out at 118% and the viability at 5 µM came to 106%.

As for `CCCCCCOCCCCCCCCNc1cnccn1` [FV, N-[8-(Hexyloxy)octyl]pyrazin-2-amine], in experiment [1], the viability at 1 µM turned out to be 104% and the viability at 5 µM is 101%. In experiment [2], the “Viable cell percent change” value is recorded as 17.51%.

In the case of `CCCCCCOCCCCCCCCn1cnc2cccnc21` [FX, 3-[8-(Hexyloxy)octyl]-3H-imidazo[4,5-b]pyridine], in experiment [1], the viability at 1 µM turned out to be 112% and the viability at 5 µM stood at 96.6%.
